Where two headings read alike, the source gives them in different places. Bridge positions count the residues as written; N and C are the ends. Square brackets hold non-standard residues; d marks the D form. Peptide text beside a SMILES is read from it. * marks the point of attachment. X1 = CC[C@H](C)CCCCC(=O)*; Dab = NCC[C@H](N)C(=O)O
Key:
Calu-3 cell monolayer [1] = assay: Transport in Calu-3 cell monolayer in presence of megalin inhibitor sodium maleate; assay type: in vitro ADME, human; conditions: for cellular accumulation / remaining in the apical chamber / intracellular accumulation normalized to protein: 2 h; for intracellular accumulation normalized to protein: Calu-3 monolayer lysate (RIPA)
Experimental: The transport behavior of polymyxin B and tobramycin in the Calu-3 cell monolayer were also evaluated in the presence of 8 mg/mL of sodium maleate, an agent known to inhibit megalin receptors via shedding of the megalin protein [23]. Calu-3 cell monolayer in trans-well inserts was formed following our previously published ALI culture protocol. Cell monolayers were pre-incubated with 8 mg/mL of sodium maleate for 4 h and were subsequently incubated with polymyxin B and tobramycin for 2 h. Samples were collected from the apical and basal chambers of the ALI culture system, analyzed using an LC-MS/MS system, and the drug content was calculated. The cell monolayer was then lysed with lysis buffer (RIPA buffer, Catalogue 89900, Thermofisher Scientific, Waltham, MA, USA) and cellular drug content was measured. Cell lysate (25 µL) from each sample was used for protein measurement. The amount of drug accumulated in the cell was normalized according to the amount of protein present in the samples. Polymyxin B and tobramycin concentrations in the samples, in the presence and absence of the megalin inhibitor sodium maleate, were plotted and statistical significance was calculated using Graph Pad Prism (version 9).

Calu-3 cell monolayer [2] = assay: Transport study in air liquid interface Calu-3 cell monolayer; conditions: LC-MS/MS; for transport rate, apparent permeability coefficient (Papp), in combination compared to drug alone / amount remaining in the apical chamber, combination compared to drug alone / transport from apical chamber to basal medium: Calu-3 ALI monolayer; for transport rate, apparent permeability coefficient (Papp), in combination compared to drug alone: apical to basal, polymyxin B 30 mg/L + tobramycin 70 mg/L vs each alone, p < 0.0001; for transport rate, apparent permeability coefficient (Papp), in combination compared to drug alone / transport from apical chamber to basal medium / accumulation in Calu-3 cell monolayer: HBSS; for amount remaining in the apical chamber, combination compared to drug alone: after 4 h of transport study; for transport from apical chamber to basal medium: 4 h; for accumulation in Calu-3 cell monolayer: at 4 h
Experimental: Human lung epithelial Calu-3 cells were grown in a 6.5 mm cell culture insert in a trans-well plate for 3 days using both apical and basal media. The apical media was withdrawn to let the cells grow in an air liquid interface (ALI). The system was maintained for 14 days, with the basal media changed every other day. The culture medium was DMEM/F-12 supplemented with 10% (v/v, FBS) and 1% (v/v) nonessential amino acid, and penicillin and streptomycin (100 units/mL of penicillin and 100 mg/L of streptomycin). After 14 days of differentiation at the ALI condition, the trans-epithelial electrical resistance (TEER) value was measured to investigate the integrity of the formed Calu-3 monolayer.
The transport study was conducted in the Calu-3 cell monolayer according to our previously published ALI culture protocol. TEER values were measured before and after the transport study to ensure the cell monolayer integrity was maintained. As the transport process was done in HBSS buffer, the drug solution was also prepared in HBSS buffer. The cell monolayer inserts were incubated with HBSS buffer for 30 min to equilibrate. The following drug solutions were used in the transport process: polymyxin B 30 mg/L, tobramycin 70 mg/L, and the combination of polymyxin B 30 mg/L and tobramycin 70 mg/L. An aliquot of 200 µL of drug solution was added to the apical chamber and 600 µL of HBSS buffer was added to the basal chamber. The samples were collected from the basal chamber every hour for a total of 4 h and the basal chamber was refilled with fresh HBSS buffer. Transported drug from the basal chamber, remaining drug from the apical chamber, and drug accumulated in the cell monolayer were extracted and analyzed using a reversed-phase LC/MS system. Drug extraction and LC/MS analysis was performed according to a previously published protocol.
For the transported samples, all buffer in the basal chamber was collected to a centrifuge tube. Colistin (1 mg/L) was added as the internal standard, and formic acid (0.1%, v/v) was added to each sample. For drug analysis in the cell, the insert was cut using a sharp scalpel. The cells in the membrane were lysed overnight with RIPA buffer and 200 µL of each sample was used to extract the drug using a protein precipitation method. Acetonitrile (400 µL) was added to the cell lysate and vortexed well to precipitate all the protein. Internal standard and formic acid were added to the samples as previously described, vortexed well, and centrifuged before transferring the supernatant into the injection vial.
The drugs were analyzed using an LC-MS/MS equipped with a C18 column (2.6 μm, 50 mm × 3 mm), a liquid chromatography system (Agilent 1200, Santa Clara, CA, USA), and a triple quadrupole mass spectrometer (Agilent 6460 QQQ, Santa Clara, CA, USA) with an electrospray ionization source. The mobile phase was 0.1% formic acid solution in water (90%) and 0.1% formic acid solution in acetonitrile (10%) with a flow rate of 0.6 mL/min. A gradient elution procedure was used, and each component was measured via multiple reaction monitoring (MRM) in the positive ionization mode (Table 1).

[3] = test system: human lung epithelial Calu-3 cells; assay type: cell-based
Experimental: Assessment of cytotoxicity was performed using aqueous solutions of polymyxin B, tobramycin, and the combination of both in human lung epithelial Calu-3 cells. This cytotoxicity assessment aimed to determine safe drug concentrations for the transport and imaging experiments. Cells were seeded in 96-well flat bottom plate (Corning, NY, USA) at a density of 2 × 10^5 cells/mL. A wide concentration range was chosen, considering a molar ratio of 1:5 polymyxin B to tobramycin based on the literature. Lactate dehydrogenase (LDH) assay was used for the measurement of cytotoxicity. Vehicle-treated cells were considered as the negative control, while 10× lysis buffer treated cells were employed as the positive control. For the imaging study, Calu-3 cells were cultured in a 35 mm glass bottom culture dish at a density of 2 × 10^5 cells/mL and were treated with a vehicle, tobramycin 700 mg/L, polymyxin B 300 mg/L, and the combination. After treatment, cells were washed with PBS and stained with PI (100 ng/mL) and DAPI (1 mg/L) for 30 min in dark. Cells were washed again with PBS and mounted for imaging with Calu-3 cell culture media.

Calu-3 cells = assay: Cellular uptake of polymyxin B by confocal microscopy (anti-polymyxin B antibody, Alexa 647); assay type: cell-based, human; conditions: 4 h
Experimental: Polymyxin B distribution in the Calu-3 cell monolayer was investigated using confocal laser scanning microscopy (CLSM). At the end of the transport process, the Calu-3 cell monolayer was prepared for imaging. The cell monolayer was washed with phosphate-buffered saline after treatment and fixed with 4% paraformaldehyde for 15 min. The cell monolayer was then permeabilized with 0.1% triton X-100 for 10 min and blocked with 3% goat serum in 0.1% triton X-100 for 2 h. To stain intracellular polymyxin B, the cell monolayer was then incubated overnight with mouse anti-polymyxin B antibody at 4 °C in the dark. After overnight incubation, the cell monolayer was incubated with goat anti-mouse IgG conjugated with Alexa Flour™ 647 for 2 h at room temperature. The nuclei were stained with Hoechst 33342.
For the drug accumulation study, Calu-3 cells were cultured in a glass bottom 35 mm dish (Ashland, MA, USA) and were incubated with 30 mg/L polymyxin B in the absence and presence of 70 mg/L tobramycin for 4 h. […] For the drug accumulation study, the background subtracted integrated density of Alexa Flour 647 (for polymyxin B) was calculated and data were presented as mean polymyxin B intensity per cell. Cell numbers per imaging field were counted using the Hoechst 33342 intensity and ImageJ “cell counter” Macro (ImageJ version 2.9).

megalin = biological target: T1, megalin (Homo sapiens, UniProt P98164); assay: Megalin substrate FITC-BSA uptake by Calu-3 cells, confocal microscopy; assay type: cell-based; conditions: 4 h; for ratio of FITC-BSA to nucleus integrated density: 100 mg/L FITC-BSA, Calu-3 cells, FITC-BSA only 0.58 ± 0.04; for effect on cellular uptake of FITC-BSA: polymyxin B 30 and 60 mg/L, tobramycin 70 and 140 mg/L
T1 construct: endogenous in cells; host or cells: Calu-3 (human lung epithelial cells)
Experimental: As albumin is an endogenous substrate of megalin [30], cellular distribution of fluorescein-labeled BSA (FITC-BSA) was evaluated in the presence of polymyxin B and tobramycin to investigate the functional activity of megalin in Calu-3 cells. Calu-3 cells were grown in an eight-well chamber slide at a density of 2 × 10^5 cell/mL in 10% FBS supplemented DMEM/F-12 cell culture media. After overnight incubation at 37 °C and 5% CO2, cells were washed to remove old media and were incubated for 4 h with 100 μg/mL of FITC-BSA in fresh cell culture media and in the presence and absence of polymyxin B (30 and 60 mg/L) and tobramycin (70 and 140 mg/L). After 4 h, cells were washed and stained with Hoechst for nucleus staining and cell mask deep red for cell membrane staining. Cells were finally washed and covered with Prolong gold antifade mounting reagent and mounted on a 60× oil immersion objective for imaging. Images were taken with a Nikon Eclipse T1 confocal microscope. Images were processed with Nikon (NIS-Elements) and Image J (version 1.54) software.

renal cortex = conditions: 400 mg/kg of sodium maleate administration, within 3 h after injection; cited from earlier work
[4] = drug alone, without sodium maleate, Calu-3 ALI monolayer, LC-MS/MS
[5] = with sodium maleate 8 mg/mL (4 h pre-incubation), Calu-3 ALI monolayer, LC-MS/MS
[6] = combination (polymyxin B 30 mg/L + tobramycin 70 mg/L), p < 0.0001 vs alone
[7] = drug alone (polymyxin B 30 mg/L or tobramycin 70 mg/L), cell lysate RIPA

T1 sequence (P98164 26-4655): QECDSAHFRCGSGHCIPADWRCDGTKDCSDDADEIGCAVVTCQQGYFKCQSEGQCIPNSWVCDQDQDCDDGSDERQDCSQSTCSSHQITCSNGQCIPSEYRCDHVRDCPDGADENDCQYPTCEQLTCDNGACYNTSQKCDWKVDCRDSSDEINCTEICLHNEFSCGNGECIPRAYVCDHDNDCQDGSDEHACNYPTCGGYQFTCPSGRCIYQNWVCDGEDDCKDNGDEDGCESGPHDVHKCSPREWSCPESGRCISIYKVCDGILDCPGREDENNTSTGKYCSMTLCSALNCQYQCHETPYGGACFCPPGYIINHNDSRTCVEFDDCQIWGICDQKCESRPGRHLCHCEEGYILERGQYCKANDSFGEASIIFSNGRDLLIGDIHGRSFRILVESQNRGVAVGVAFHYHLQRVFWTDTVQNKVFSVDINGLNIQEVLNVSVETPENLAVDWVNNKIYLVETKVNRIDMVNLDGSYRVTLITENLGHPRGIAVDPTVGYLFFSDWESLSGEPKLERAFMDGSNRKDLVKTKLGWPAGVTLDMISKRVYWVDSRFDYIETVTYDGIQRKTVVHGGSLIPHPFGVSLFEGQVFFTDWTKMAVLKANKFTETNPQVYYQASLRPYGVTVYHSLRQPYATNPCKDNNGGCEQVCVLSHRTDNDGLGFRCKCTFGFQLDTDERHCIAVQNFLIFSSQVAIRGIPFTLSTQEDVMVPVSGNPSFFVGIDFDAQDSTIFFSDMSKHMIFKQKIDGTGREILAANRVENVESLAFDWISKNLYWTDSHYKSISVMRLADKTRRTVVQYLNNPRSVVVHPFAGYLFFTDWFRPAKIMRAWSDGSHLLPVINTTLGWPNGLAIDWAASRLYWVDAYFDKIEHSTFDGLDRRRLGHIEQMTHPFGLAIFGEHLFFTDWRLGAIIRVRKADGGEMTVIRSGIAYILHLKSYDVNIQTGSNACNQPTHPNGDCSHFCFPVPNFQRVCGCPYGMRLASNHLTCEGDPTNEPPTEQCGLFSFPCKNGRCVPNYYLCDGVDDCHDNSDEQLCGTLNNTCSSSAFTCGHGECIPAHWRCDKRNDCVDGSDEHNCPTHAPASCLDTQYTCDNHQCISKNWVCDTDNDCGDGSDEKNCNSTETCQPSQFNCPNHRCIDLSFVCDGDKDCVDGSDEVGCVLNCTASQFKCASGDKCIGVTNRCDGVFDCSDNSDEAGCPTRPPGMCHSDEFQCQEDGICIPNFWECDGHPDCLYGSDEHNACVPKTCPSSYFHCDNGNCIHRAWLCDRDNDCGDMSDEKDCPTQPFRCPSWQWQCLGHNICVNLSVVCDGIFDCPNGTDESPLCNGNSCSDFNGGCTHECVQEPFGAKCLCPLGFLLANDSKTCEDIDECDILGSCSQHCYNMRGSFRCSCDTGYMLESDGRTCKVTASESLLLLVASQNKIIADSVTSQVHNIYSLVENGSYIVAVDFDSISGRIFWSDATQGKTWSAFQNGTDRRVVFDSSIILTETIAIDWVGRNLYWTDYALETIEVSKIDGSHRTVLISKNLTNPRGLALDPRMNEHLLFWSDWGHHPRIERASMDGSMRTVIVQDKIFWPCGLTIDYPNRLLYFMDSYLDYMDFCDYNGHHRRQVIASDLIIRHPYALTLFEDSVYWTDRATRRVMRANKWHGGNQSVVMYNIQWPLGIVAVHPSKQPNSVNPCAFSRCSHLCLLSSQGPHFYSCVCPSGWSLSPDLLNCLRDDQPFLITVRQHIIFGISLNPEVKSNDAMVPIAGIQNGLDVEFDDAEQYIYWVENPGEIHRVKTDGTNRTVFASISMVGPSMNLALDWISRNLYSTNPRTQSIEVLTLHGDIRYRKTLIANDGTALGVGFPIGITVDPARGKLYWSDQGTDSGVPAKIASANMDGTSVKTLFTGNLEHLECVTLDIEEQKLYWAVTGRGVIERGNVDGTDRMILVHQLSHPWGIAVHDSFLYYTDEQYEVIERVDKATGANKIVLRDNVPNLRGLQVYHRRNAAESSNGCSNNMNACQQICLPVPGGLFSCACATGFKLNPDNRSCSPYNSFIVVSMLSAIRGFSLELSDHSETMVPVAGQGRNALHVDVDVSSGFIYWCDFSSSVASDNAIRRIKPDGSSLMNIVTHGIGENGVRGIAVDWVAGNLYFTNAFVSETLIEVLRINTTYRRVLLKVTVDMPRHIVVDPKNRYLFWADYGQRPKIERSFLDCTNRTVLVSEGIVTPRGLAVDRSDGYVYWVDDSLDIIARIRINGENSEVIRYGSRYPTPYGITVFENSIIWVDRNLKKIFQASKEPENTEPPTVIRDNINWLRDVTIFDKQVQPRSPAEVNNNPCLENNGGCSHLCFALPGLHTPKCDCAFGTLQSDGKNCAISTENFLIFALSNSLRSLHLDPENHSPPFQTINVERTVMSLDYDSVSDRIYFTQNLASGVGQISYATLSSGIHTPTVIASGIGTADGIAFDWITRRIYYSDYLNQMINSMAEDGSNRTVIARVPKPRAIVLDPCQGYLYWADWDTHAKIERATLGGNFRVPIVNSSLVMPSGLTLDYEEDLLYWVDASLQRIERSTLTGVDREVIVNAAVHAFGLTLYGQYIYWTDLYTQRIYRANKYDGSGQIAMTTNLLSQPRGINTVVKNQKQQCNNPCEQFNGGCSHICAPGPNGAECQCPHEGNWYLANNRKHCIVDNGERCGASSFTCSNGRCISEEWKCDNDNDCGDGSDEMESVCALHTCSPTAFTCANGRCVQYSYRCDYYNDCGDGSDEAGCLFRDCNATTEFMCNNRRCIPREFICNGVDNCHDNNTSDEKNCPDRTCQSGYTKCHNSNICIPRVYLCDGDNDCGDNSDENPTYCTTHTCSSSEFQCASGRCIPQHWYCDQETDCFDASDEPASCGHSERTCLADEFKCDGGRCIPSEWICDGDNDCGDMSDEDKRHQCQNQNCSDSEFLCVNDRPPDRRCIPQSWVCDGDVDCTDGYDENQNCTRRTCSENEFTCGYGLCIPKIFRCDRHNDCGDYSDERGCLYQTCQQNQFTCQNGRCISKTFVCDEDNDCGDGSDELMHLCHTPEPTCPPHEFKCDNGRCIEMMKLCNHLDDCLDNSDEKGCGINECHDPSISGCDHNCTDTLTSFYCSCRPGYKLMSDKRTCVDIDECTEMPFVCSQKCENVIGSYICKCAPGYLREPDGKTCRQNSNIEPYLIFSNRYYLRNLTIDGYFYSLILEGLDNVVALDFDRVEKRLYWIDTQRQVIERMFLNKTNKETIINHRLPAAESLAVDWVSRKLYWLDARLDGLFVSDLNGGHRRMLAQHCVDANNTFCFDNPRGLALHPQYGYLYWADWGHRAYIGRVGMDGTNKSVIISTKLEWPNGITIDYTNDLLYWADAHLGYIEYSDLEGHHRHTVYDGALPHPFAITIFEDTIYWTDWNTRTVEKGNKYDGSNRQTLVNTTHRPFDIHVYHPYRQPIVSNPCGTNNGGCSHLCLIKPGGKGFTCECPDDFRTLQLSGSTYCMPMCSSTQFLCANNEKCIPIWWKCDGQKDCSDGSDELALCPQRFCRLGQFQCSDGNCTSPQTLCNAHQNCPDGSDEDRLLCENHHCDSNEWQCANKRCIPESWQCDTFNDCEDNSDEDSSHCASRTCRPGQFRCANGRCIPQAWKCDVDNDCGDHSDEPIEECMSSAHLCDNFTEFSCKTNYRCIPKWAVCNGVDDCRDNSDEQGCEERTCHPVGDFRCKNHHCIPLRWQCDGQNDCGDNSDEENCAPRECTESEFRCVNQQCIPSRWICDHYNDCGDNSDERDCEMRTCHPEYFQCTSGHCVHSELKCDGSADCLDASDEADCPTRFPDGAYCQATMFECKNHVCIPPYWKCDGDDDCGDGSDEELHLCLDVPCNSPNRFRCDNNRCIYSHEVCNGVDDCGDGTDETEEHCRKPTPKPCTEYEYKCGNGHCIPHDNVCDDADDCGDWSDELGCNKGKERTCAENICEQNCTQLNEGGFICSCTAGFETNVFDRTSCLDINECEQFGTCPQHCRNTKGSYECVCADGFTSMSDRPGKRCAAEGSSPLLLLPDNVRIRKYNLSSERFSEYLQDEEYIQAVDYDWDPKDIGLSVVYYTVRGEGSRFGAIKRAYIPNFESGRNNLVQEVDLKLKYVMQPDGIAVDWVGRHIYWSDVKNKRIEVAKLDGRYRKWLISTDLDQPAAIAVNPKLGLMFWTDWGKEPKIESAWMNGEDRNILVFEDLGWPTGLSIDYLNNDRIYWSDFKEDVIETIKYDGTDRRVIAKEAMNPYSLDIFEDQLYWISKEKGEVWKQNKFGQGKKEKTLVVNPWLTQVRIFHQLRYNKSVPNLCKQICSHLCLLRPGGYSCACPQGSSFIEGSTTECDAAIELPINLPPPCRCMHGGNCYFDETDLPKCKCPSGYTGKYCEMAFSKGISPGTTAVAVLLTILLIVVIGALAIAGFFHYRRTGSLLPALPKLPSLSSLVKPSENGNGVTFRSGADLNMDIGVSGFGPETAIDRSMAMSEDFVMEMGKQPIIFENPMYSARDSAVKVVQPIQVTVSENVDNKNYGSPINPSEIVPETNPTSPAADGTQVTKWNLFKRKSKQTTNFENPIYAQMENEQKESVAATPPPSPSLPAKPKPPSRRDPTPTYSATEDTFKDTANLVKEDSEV

In the case of `CC[C@H](C)CCCCC(=O)N[C@@H](CCN)C(=O)N[C@H](C(=O)N[C@@H](CCN)C(=O)N[C@H]1CCNC(=O)[C@H]([C@@H](C)O)NC(=O)[C@H](CCN)NC(=O)[C@H](CCN)NC(=O)[C@H](CC(C)C)NC(=O)[C@@H](Cc2ccccc2)NC(=O)[C@H](CCN)NC1=O)[C@@H](C)O` [polymyxin B, Polymyxin B] (X1-[Dab]T[Dab][Dab][Dab][dF]L[Dab][Dab]T; lactam 4-C), the cellular accumulation (Calu-3 cell monolayer [1]; [4]) is reported as 26.5 ± 2.1%, the “remaining in the apical chamber” value (Calu-3 cell monolayer [1]; [4]) is reported as 59.9 ± 1.2% and the “transported from the apical chamber to the basal chamber” value (shortened to “transported from the apical chamber”) (Calu-3 cell monolayer [1]; drug alone, without sodium maleate, Calu-3 ALI monolayer, 2 h incubation, LC-MS/MS) is reported as 13.5 ± 1.6%. For the same compound, the “transported from the apical chamber” value (Calu-3 cell monolayer [1]; in the presence of sodium maleate 8 mg/mL (4 h pre-incubation), Calu-3 ALI monolayer, 2 h incubation, LC-MS/MS) was 8.2 ± 0.9%, the cellular accumulation (Calu-3 cell monolayer [1]; [5]) was 8.1 ± 0.4% and the “remaining in the apical chamber” value (Calu-3 cell monolayer [1]; [5]) was 83.7 ± 1.3%. The “intracellular accumulation normalized to protein” value (Calu-3 cell monolayer [1]; with sodium maleate 8 mg/mL (4 h pre-incubation), LC-MS/MS) was 1.9 ± 0.04 ng/µg of protein, the “intracellular accumulation normalized to protein” value (Calu-3 cell monolayer [1]; without sodium maleate, LC-MS/MS) was 6.0 ± 0.8 ng/µg of protein and the “transport rate, apparent permeability coefficient (Papp), in combination compared to drug alone” value (Calu-3 cell monolayer [2]) was “decreased significantly”. For the same compound, the “amount remaining in the apical chamber, combination compared to drug alone” value (Calu-3 cell monolayer [2]) was “Significantly higher amounts”, the “transport from apical chamber to basal medium” value (Calu-3 cell monolayer [2]; [6]) was 3.9 ± 0.3% and the “accumulation in Calu-3 cell monolayer” value (Calu-3 cell monolayer [2]; [6]) was 6.4 ± 0.1%. For the same compound, the “accumulation in Calu-3 cell monolayer” value (Calu-3 cell monolayer [2]; [7]) was 21.4 ± 2.0%, the “transport from apical chamber to basal medium” value (Calu-3 cell monolayer [2]; drug alone (polymyxin B 30 mg/L), 30 min equilibration) was 7.1 ± 0.4% and the “safety of concentrations chosen for the transport study” value ([3]; 30 mg/L polymyxin B alone, 70 mg/L tobramycin alone, and their combination, based on cell viability data) was “safe”. The “cell death compared to the control” value ([3]; at 300 mg/L, LDH assay) was “significant cell death”, the PI intensity ([3]; polymyxin B 300 mg/L treated Calu-3 cells, mean ± SD (n = 3), p < 0.001 vs control) was 4334.0 ± 1131.6 and the “polymyxin B intensity per cell” value (Calu-3 cells; combination polymyxin B 30 mg/L + tobramycin 70 mg/L, mean ± SD, p < 0.001 vs polymyxin B alone) was 932.3 ± 136.0. The “polymyxin B intensity per cell” value (Calu-3 cells; polymyxin B 30 mg/L alone, Alexa 647, mean ± SD, saline control 113.0 ± 13.6) was 2259.3 ± 309.4, the “ratio of FITC-BSA to nucleus integrated density” value (shortened to “ratio of FITC-BSA”) (megalin; 30 mg/L polymyxin B) was 0.36 ± 0.03 and the “ratio of FITC-BSA” value (megalin; 60 mg/L polymyxin B) was 0.29 ± 0.02. The “effect on cellular uptake of FITC-BSA” value (megalin) was “prevented the cellular uptake of FITC-BSA in a concentration-dependent manner”.
For `O=C([O-])/C=C\C(=O)[O-].[Na+].[Na+]` [sodium maleate], the “decrease of renal cortex accumulation of amikacin” value (renal cortex) is listed as 50%.
In the case of `NC[C@H]1O[C@H](O[C@H]2[C@H](O)[C@@H](O[C@H]3O[C@H](CO)[C@@H](O)[C@H](N)[C@H]3O)[C@H](N)C[C@@H]2N)[C@H](N)C[C@@H]1O` [tobramycin], the “transported from the apical chamber” value (Calu-3 cell monolayer [1]) is reported as 11.9 ± 1.3%, the “transport rate, apparent permeability coefficient (Papp), in combination compared to drug alone” value (Calu-3 cell monolayer [2]) is reported as “decreased significantly” and the “amount remaining in the apical chamber, combination compared to drug alone” value (Calu-3 cell monolayer [2]) is reported as “Significantly higher amounts”. For the same compound, the “accumulation in Calu-3 cell monolayer” value (Calu-3 cell monolayer [2]; [6]) was 3.8 ± 0.8%, the “accumulation in Calu-3 cell monolayer” value (Calu-3 cell monolayer [2]; [7]) was 13.2 ± 4.3% and the “reduction in viability of Calu-3 cells compared to the control” value [3] was “did not result in any reduction in the viability”. For the same compound, the “ratio of FITC-BSA” value (megalin; 70 mg/L tobramycin) was 0.41 ± 0.02, the “ratio of FITC-BSA” value (megalin; 140 mg/L tobramycin) was 0.30 ± 0.02 and the “effect on cellular uptake of FITC-BSA” value (megalin) was “prevented the cellular uptake of FITC-BSA in a concentration-dependent manner”.
